Laboratory results from paper PMC8476755 (Frontiers in Chemistry, 2021).
Where two headings read alike, the source gives them in different places.

Experiments:
[1] = target: T1, BGT1 Q299L (Homo sapiens, UniProt P48065, Q299L); experiment: [3H]GABA uptake assay, transient expression in tsA201 cells; type: cell-based; settings: for IC50: BGT1 Q299L, tsA201 cells
T1 construct: expressed in transfected cells; host or cells: tsA201 (transformed HEK293), transient
T1 sequence (P48065 1-614 Q299L): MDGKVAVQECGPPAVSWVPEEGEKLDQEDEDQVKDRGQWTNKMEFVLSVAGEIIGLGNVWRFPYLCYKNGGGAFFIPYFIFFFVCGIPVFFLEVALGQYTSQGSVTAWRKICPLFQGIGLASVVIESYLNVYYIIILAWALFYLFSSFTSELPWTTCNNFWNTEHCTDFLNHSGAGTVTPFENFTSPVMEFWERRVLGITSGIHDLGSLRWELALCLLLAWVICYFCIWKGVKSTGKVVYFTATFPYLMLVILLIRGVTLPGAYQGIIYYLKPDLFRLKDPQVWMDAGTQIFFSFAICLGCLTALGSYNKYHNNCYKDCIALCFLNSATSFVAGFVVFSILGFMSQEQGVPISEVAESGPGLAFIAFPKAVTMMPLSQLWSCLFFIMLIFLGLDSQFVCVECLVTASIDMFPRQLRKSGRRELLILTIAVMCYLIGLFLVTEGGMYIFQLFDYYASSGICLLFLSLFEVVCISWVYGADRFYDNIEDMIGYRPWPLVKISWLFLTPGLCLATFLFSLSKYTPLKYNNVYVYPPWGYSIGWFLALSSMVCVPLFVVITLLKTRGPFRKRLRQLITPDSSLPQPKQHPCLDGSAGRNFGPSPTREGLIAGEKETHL
Source text: The residue Q299 in human BGT1 corresponds to leucine in all other GATs (human, rat, mouse), while E52 corresponds to tyrosine in GAT1 (human, rat, mouse) but is conserved among GAT2, GAT3 and BGT1 (human, rat, mouse) (Figure 6A) ([Kickinger et al., 2019]).
FIGURE 6 (A) Pocket alignment of the orthosteric site of the four GAT subtypes colored according to the default ClustalX color scheme ([Larkin et al., 2007]). The pocket was defined as all corresponding GAT residues (15 in total) that are within a distance of 4.5 Å of the co-crystallized ligand leucine in the homologous LeuT crystal structure (PDB ID 2A65) ([Yamashita et al., 2005]) according to the alignment by Kickinger et al. ([Kickinger et al., 2019]). The mutated residues in BGT1 and the corresponding residues in GAT1-3 are indicated by a red box. The numbering of all residues within the orthosteric pocket can be found in the Supplementary Table S1.
The tsA201 cell line (a transformed HEK293 cell line), the Flp-In CHO cell lines stably expressing human (h) GATs and the HEK293 cell line stably expressing human α1β2γ2 GABAA receptors have been described previously and were cultured accordingly ([Al-Khawaja et al., 2014]; [Falk-Petersen et al., 2020]). The tsA201 cell line used for transient expression of hGATs was transfected with DNA constructs (8 μg per 10 cm plate) using 40 μL PolyFect transfection reagent according to the manufacturer’s protocol (Qiagen).
Briefly, cells were seeded in white 96-well plates (White Opaque Tissue Culture (TC) plated 96-well Microplate) pre-coated with PDL. Medium was removed on the following day and cells washed with 100 µL/well assay buffer (HBSS supplemented with 20 mM HEPES, 1 mM CaCl2 and 1 mM MgCl2, pH 7.4). […] The cells were washed 3 times with 100 µL/well ice-cold assay buffer, 150 µL/well MicroScint™20 was subsequently added before the plate was shaken for at least 1 h. The plate was counted in a Packard TopCounter microplate scintillation counter (PerkinElmer) for 3 min per well. […] Data presented is the pooled data of at least three independent experiments with three technical replicates if not stated otherwise in figure legends. Concentration–response curves were fitted by non-linear regression to the sigmoidal concentration-response model with GraphPad Prism (version 9.0.0, GraphPad Software, San Diego, CA, United States) as described ([Lie et al., 2020]).

[2] = test system: BGT1; parameters: method as in Kobayashi et al., 2014; settings: ref Kobayashi et al., 2014, cited from earlier work

IC50 ([1]; read-out: IC50) [µM]	IC50 ([1]; read-out: pIC50 ± S.E.M. (converted)) [µM]	Decrease in inhibitory activity compared to wildtype ([1]; BGT1 Q299L vs BGT1 wt) [times]	Compound	IC50 ([2]; BGT1 inhibition) [µM]	Higher activity for BGT1 compared to 1 [2] [times]	Higher activity for BGT1 than GAT3 ([2]; subtype-selectivity BGT1 vs GAT3) [times]
59	50.1	–	CN[C@@]12CC[C@H](C(=O)O)[C@@H]1C2 [compound 2]	–	–	–
48	–	32	N[C@@]12CC[C@H](C(=O)O)[C@@H]1C2 [bicyclo-GABA, (1S,2S,5R)-5-aminobicyclo[3.1.0]hexane-2-carboxylic acid]	0.59	9	129
